The values below are quoted from earlier work in US5576012A, “Pharmaceutical aqueous formulations containing a sparingly soluble pharmaceutical active compound with a solubilizing polymeric agent” (priority 1990, dated 1996).

Read-outs that look alike come from different tables or passages of the source.

Assay in data set [1]: not given
The source holds these as a separate data set.

In the case of `OC[C@H]1O[C@@H]2O[C@H]3[C@H](O)[C@@H](O)[C@@H](O[C@H]4[C@H](O)[C@@H](O)[C@@H](O[C@H]5[C@H](O)[C@@H](O)[C@@H](O[C@H]6[C@H](O)[C@@H](O)[C@@H](O[C@H]7[C@H](O)[C@@H](O)[C@@H](O[C@H]8[C@H](O)[C@@H](O)[C@@H](O[C@H]9[C@H](O)[C@@H](O)[C@@H](O[C@H]1[C@H](O)[C@H]2O)O[C@@H]9CO)O[C@@H]8CO)O[C@@H]7CO)O[C@@H]6CO)O[C@@H]5CO)O[C@@H]4CO)O[C@@H]3CO` [γ-CD, γ-cyclodextrin], for the setting “water”, the water-solubility was 25.8%.

Turning to `OC[C@H]1O[C@@H]2O[C@H]3[C@H](O)[C@@H](O)[C@@H](O[C@H]4[C@H](O)[C@@H](O)[C@@H](O[C@H]5[C@H](O)[C@@H](O)[C@@H](O[C@H]6[C@H](O)[C@@H](O)[C@@H](O[C@H]7[C@H](O)[C@@H](O)[C@@H](O[C@H]8[C@H](O)[C@@H](O)[C@@H](O[C@H]1[C@H](O)[C@H]2O)O[C@@H]8CO)O[C@@H]7CO)O[C@@H]6CO)O[C@@H]5CO)O[C@@H]4CO)O[C@@H]3CO` [β-CD, β-cyclodextrin], the “toxic action on parenteral administration” value in data set [1] (administered parenterally) is reported as “nephrotoxic action”.

For the compound `CC(C)c1cccc(C(C)C)c1O` [propofol, reference compound], where the note is “active compounds for intravasal use”, the “water-solubility (in words)” value was “too low to dissolve the therapeutic dose in an acceptable volume”.

Take `CC(O)CO` (stereo not drawn) [propylene glycol]: the Intravasal hemolytic reactions result in data set [1] (in vivo) is reported as “detectable”.

For `CCO` [ethanol], in data set [1] (intravasal), the Intravasal hemolytic reactions result is recorded as “detectable”.

As to `OC[C@H]1O[C@@H]2O[C@H]3[C@H](O)[C@@H](O)[C@@H](O[C@H]4[C@H](O)[C@@H](O)[C@@H](O[C@H]5[C@H](O)[C@@H](O)[C@@H](O[C@H]6[C@H](O)[C@@H](O)[C@@H](O[C@H]7[C@H](O)[C@@H](O)[C@@H](O[C@H]1[C@H](O)[C@H]2O)O[C@@H]7CO)O[C@@H]6CO)O[C@@H]5CO)O[C@@H]4CO)O[C@@H]3CO` [α-CD, α-cyclodextrin], for the setting “cyclodextrins in water”, the water-solubility is given as 17.4%.
